This note sets out measurements from patent US9510598B2, “Nitrogen-containing heterocyclic compounds for plant disease control” (BAYER CROPSCIENCE AG, priority 2012, dated 2016).

Values joined by “and” are separate entries in the source; they are usually repeats but may differ in a detail not shown here. Equal entries are not always repeated. Where two headings read alike, the source gives them in different places.

Data set [1] is classed as physicochemical.
Data set [2] has as its system Phytophthora infestans. Type of data set: in vivo. The note with it: 500 ppm; tomato plants sprayed 24 hours before contamination; grading 5 days after contamination vs control plants.
Data set [3] concerns Septoria tritici. In words: In vivo preventive test on Septoria tritici (leaf spot on wheat). As to conditions: 500 ppm; wheat plants sprayed 24 hours before contamination; grading 21 to 28 days after contamination vs control plants. The method in brief:
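Scipion wheat at 1-leaf stage sprayed with compound, controls receiving acetone/tween/DMSO/water vehicle; 24 h later leaves inoculated with Septoria tritici spores (500 000 spores per ml). Efficacy (%) graded versus control plants 21 to 28 days after contamination.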

In data set [4] the test system is Sphaerotheca fuliginea. The data set can be described thus: In vivo preventive test on Sphaerotheca fuliginea (powdery mildew on cucurbits). As to conditions: 500 ppm; gherkin plants sprayed 24 hours before contamination; grading 12 days after contamination vs control plants. Summed up: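 Preventive spray of gherkin plants at Z11 cotyledon stage, grown at 24° C; inoculation 24 hours later with Sphaerotheca fuliginea spores (100 000 spores per ml). Efficacy graded 12 days post-inoculation as % versus solvent-treated control plants.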

Data set [5] has as its system Botrytis cinerea. In words: In vivo preventive test on Botrytis cinerea (grey mould). As to conditions: 500 ppm; gherkin plants sprayed 24 hours before contamination; grading 4-5 days after contamination vs control plants. Summed up:
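Gherkin plants ("Vert petit de Paris") sprayed with compound at Z11 cotyledon stage, then inoculated 24 h later with B. cinerea spores (50 000/ml) in PDB/fructose/NH4NO3/KH2PO4 nutrient solution. Incubated at 17 °C, 80% RH; % efficacy versus solvent-treated controls graded 4–5 days after contamination.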

[6] abbreviates: method [a]: HPLC/LC-MS on reversed phase at pH 2.7, 0.1% formic acid in water / acetonitrile, gradient 10% to 95% acetonitrile.
Setting [7] is: HPLC on reversed phase columns, method [a]: pH 2.7, 0.1% formic acid in water / acetonitrile, linear gradient 10% to 95% acetonitrile.
Setting [8] is: method [a]: HPLC/LC-MS on reversed phase at pH 2.7, 0.1% formic acid in water / acetonitrile, linear gradient 10% to 95% acetonitrile.
Setting [9] is: HPLC on reversed phase columns, method [a]: pH 2.7, 0.1% formic acid in water and acetonitrile, linear gradient 10% to 95% acetonitrile.

In the case of `C#Cc1cnc2ccc(C3=NOC(C)(C(=O)NC(C)COC)C3)cc2c1` (racemic) [compound 365], the “log P” value in data set [1] (setting [6]) was 2.26[a]. Moreover, the “% of efficacy (protection)” value in data set [2] is recorded as 79%; in data set [3], 100%; in data set [4], 98%.

Consider `CC#Cc1cnc2ccc(C3=NOC(C)(C(=O)NC(C)C)C3)cc2c1` (racemic) [compound 381], for which the “log P” value in data set [1] (setting [6]) is 2.73[a]. Moreover, the “% of efficacy (protection)” value in data set [2] came out at 95%; in data set [3] it was 97%; in data set [4], 94%.

In the case of `CCn1cc(CNC(=O)C2(OC)CC(c3ccc4ncc(I)cc4c3)=NO2)c(C)n1` (racemic) [compound 437], the “log P” value in data set [1] (setting [6]) was 2.44[a]. Besides, the entries for the “% of efficacy (protection)” value in data set [2] and in data set [4] were 70% and 100%, respectively.

Consider `C#Cc1cnc2ccc(C3=NOC(CC)(C(=O)NCc4cn(CCC)nc4C)C3)cc2c1` (racemic) [compound 445], for which the “log P” value in data set [1] (setting [6]) was 2.64[a]. In addition, the “% of efficacy (protection)” value in data set [5] came to 93%; in data set [2] it was 100%; in data set [3] it was 94%; in data set [4], 94%.

Take `CCCn1cc(CNC(=O)C2(OC)CC(c3ccc4ncc(I)cc4c3)=NO2)c(C)n1` (racemic) [compound 449]: in data set [1] (setting [6]), the “log P” value was 2.73[a]. The “% of efficacy (protection)” value came out at 99% in data set [5], 100% in data set [2], 98% in data set [3] and 100% in data set [4].

For the compound `CCCn1cc(CNC(=O)C2(C)CC(c3cc(Cl)c4ncc(Br)cc4c3)=NO2)c(C)n1` (racemic) [compound 549], in data set [1] (setting [7]), the “log P” value was 3.06[a]. Besides, the entries for the “% of efficacy (protection)” value in data set [5], in data set [2] and in data set [3] were 83%, 96% and 97%, respectively.

As to `C#Cc1cnc2ccc(C3=NOC(C)(C(=O)NC(C)C)C3)cc2c1` (stereo not shown) [compound 40], in data set [1] (setting [8]), the “log P” value is 2.28^[a]. Further, the “% of efficacy (protection)” value is reported as 100% in data set [5], 97% in data set [2], 100% in data set [3] and 100% in data set [4].

On to `CCn1cc(CNC(=O)C2(CC)CC(c3ccc4ncc(Br)cc4c3)=NO2)c(C)n1` (stereo not shown) [compound 70], for which the “log P” value in data set [1] (setting [8]) was 2.66^[a]. The “% of efficacy (protection)” value in data set [5] is reported as 93%; in data set [2] it was 82%; in data set [3], 100%; in data set [4] it was 100%.

On to `C#Cc1cnc2ccc(C3=NOC(C)(C(=O)NCc4cn(CCC)nc4C)C3)cc2c1` (stereo not shown) [compound 83], for which the “log P” value in data set [1] (setting [8]) is 2.39^[a]. The “% of efficacy (protection)” value in data set [5] was 100%; in data set [2], 97%; in data set [3] it was 92%; in data set [4], 97% and 98%.

On to `C#Cc1cnc2ccc(C3=NOC(C)(C(=O)NCc4c(C)nn(CC)c4C)C3)cc2c1` (stereo not shown) [compound 87], for which the “log P” value in data set [1] (setting [8]) was 2.08^[a]. Further, the “% of efficacy (protection)” value is 97% in data set [5], 100% in data set [2] and 89% in data set [4].

As to `CCn1ncc(CNC(=O)C2(C)CC(c3ccc4ncc(Br)cc4c3)=NO2)c1C` (stereo not shown) [compound 100], in data set [1] (setting [8]), the “log P” value was 2.37^[a]. In addition, the “% of efficacy (protection)” value in data set [5] was determined as 97%; in data set [2], 98%; in data set [3] it was 75%; in data set [4], 94%.

On to `C#Cc1cnc2ccc(C3=NOC(C)(C(=O)NCc4cnn(CC)c4)C3)cc2c1` (stereo not shown) [compound 181], for which the “log P” value in data set [1] (setting [8]) is 2.04^[a]. The entries for the “% of efficacy (protection)” value in data set [5], in data set [2] and in data set [4] were 92%, 92% and 98%, respectively.

Regarding `CCn1cc(CNC(=O)C2(C)CC(c3ccc4ncc(Br)cc4c3)=NO2)cn1` (stereo not shown) [compound 182], in data set [1] (setting [8]), the “log P” value is 2.27^[a]. For the same compound, the “% of efficacy (protection)” value in data set [5] is recorded as 99%; in data set [2] it was 83%; in data set [4], 98%.

`C#Cc1cnc2ccc(C3=NOC(C)(C(=O)NCc4c(C)nn(C)c4C)C3)cc2c1` (stereo not shown) [compound 183]: the “log P” value in data set [1] (setting [8]) is 1.91^[a]. Also, the “% of efficacy (protection)” value in data set [2] and in data set [3] was 86% in each case.

As for `C#Cc1cnc2ccc(C3=NOC(C)(C(=O)NCc4cnn(CC)c4C)C3)cc2c1` (stereo not shown) [compound 195], in data set [1] (setting [8]), the “log P” value is 2.11^[a]. Further, the “% of efficacy (protection)” value in data set [5] is 97%; in data set [2], 100%; in data set [3], 100%; in data set [4], 98%.

As for `C#Cc1cnc2ccc(C3=NOC(C)(C(=O)NCc4c(C)nn(C(C)C)c4C)C3)cc2c1` (stereo not shown) [compound 196], the “log P” value in data set [1] (setting [8]) is 2.32^[a]. In data set [2], the “% of efficacy (protection)” value is recorded as 94%.

`C#Cc1cnc2ccc(C3=NOC(C)(C(=O)NCc4cnn(C(C)C)c4)C3)cc2c1` (stereo not shown) [compound 197]: the “log P” value in data set [1] (setting [8]) was 2.23^[a]. The “% of efficacy (protection)” value in data set [5] stood at 100%; in data set [2], 97%; in data set [3], 86%; in data set [4], 98%.

Regarding `CC(C)n1cc(CNC(=O)C2(C)CC(c3ccc4ncc(Br)cc4c3)=NO2)cn1` (stereo not shown) [compound 199], the “log P” value in data set [1] (setting [8]) is 2.5^[a]. The “% of efficacy (protection)” value stood at 99% in data set [5], 92% in data set [2] and 98% in data set [4].

As for `CC1(C(=O)NCc2cnn(Cc3ccccc3)c2)CC(c2ccc3ncc(Br)cc3c2)=NO1` (stereo not shown) [compound 201], in data set [1] (setting [8]), the “log P” value is 2.94^[a]. Besides, the “% of efficacy (protection)” value in data set [2] came out at 92%; in data set [3], 86%.

`CON=CC(C)(C)NC(=O)C1(C)CC(c2ccc3ncc(Br)cc3c2)=NO1` (stereo not shown) [compound 298]: the “log P” value in data set [1] (setting [7]) is 3.29[a]. The “% of efficacy (protection)” value in data set [5] is listed as 87%; in data set [2], 100%; in data set [3], 100%.

`CCn1cc(C(C)NC(=O)C2(C)CC(c3ccc4ncc(Br)cc4c3)=NO2)c(C)n1` (stereo not shown) [compound 312]: the “log P” value in data set [1] (setting [7]) was 2.52[a]. Besides, the “% of efficacy (protection)” value was 100% in data set [2], 100% in data set [3] and 94% in data set [4].

As for `C#Cc1cnc2ccc(C3=NOC(C)(C(=O)NC(C)C4=NOCC4)C3)cc2c1` (stereo not shown) [compound 338], the “log P” value in data set [1] (setting [7]) is 2.08[a]. For the same compound, the “% of efficacy (protection)” value in data set [2] is given as 92%; in data set [3], 100%; in data set [4] it was 100%.

On to `C#Cc1cnc2ccc(C3=NOC(C)(C(=O)NC(C)c4cn(CC)nc4C)C3)cc2c1` (stereo not shown) [compound 351], for which, in data set [1] (setting [7]), the “log P” value is 2.28[a]. The “% of efficacy (protection)” value in data set [2] turned out to be 100%; in data set [3], 100%; in data set [4], 98%.

Take `CCCn1cc(CNC(=O)C2(C)CC(c3ccc4ncc(I)cc4c3)=NO2)c(C)n1` (stereo not shown) [compound 455]: in data set [1] (setting [6]), the “log P” value is 2.75[a]. Also, the “% of efficacy (protection)” value in data set [5] is reported as 98%; in data set [2], 100%; in data set [4], 98%.

Turning to `C#Cc1cnc2ccc(C3=NOC(C)(C(=O)NCc4cn(C(C)C)nc4C)C3)cc2c1` (stereo not shown) [compound 461], the “log P” value in data set [1] (setting [6]) was 2.34[a]. Moreover, the “% of efficacy (protection)” value was 99% in data set [5], 100% in data set [2] and 98% in data set [4].

`C#Cc1cnc2ccc(C3=NOC(C)(C(=O)NC(C)(C)c4nc(C)cs4)C3)cc2c1` (stereo not shown) [compound 516]: the “log P” value in data set [1] (setting [7]) is 2.92[a]. Besides, the figures for the “% of efficacy (protection)” value in data set [5] and in data set [2] were 100% and 73%, respectively.

For the compound `C#Cc1cnc2c(Cl)cc(C3=NOC(C)(C(=O)NCc4cn(CCC)nc4C)C3)cc2c1` (stereo not shown) [compound 551], the “log P” value in data set [1] (setting [7]) is 2.78[a]. In addition, the “% of efficacy (protection)” value is 98% in data set [5], 81% in data set [2] and 93% in data set [3].

Regarding `C=CC1(C(=O)NCc2cn(CC)nc2C)CC(c2ccc3ncc(I)cc3c2)=NO1` (stereo not shown) [compound 728], the “log P” value in data set [1] (setting [9]) was 2.75[a]. In addition, the figures for the “% of efficacy (protection)” value in data set [5], in data set [2] and in data set [4] were 97%, 100% and 100%, respectively.

In the case of `C=CC1(C(=O)NCCCOCC)CC(c2ccc3ncc(Br)cc3c2)=NO1` (stereo not shown) [compound 733], in data set [1] (setting [9]), the “log P” value was 3.06[a]. The “% of efficacy (protection)” value in data set [2] is 100%; in data set [3], 92%; in data set [4], 98%.
